# Data taken from patent publication US20260116868A1 (Arcus Biosciences, Inc., priority 2023, published 2026).
# Columns and labels:
# Cbl-b = target: T1, Cbl-b (Homo sapiens, UniProt Q13191); assay: Cbl-b probe displacement HTRF binding assay; details: 0.4 nM Cbl-b, 150 nM BODIPY probe
# T1 construct: biotin (biotinylated protein)
# Procedure, shortened: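 Binding IC50 from four-parameter fit of HTRF signal loss, normalised to DMSO (0%) and no-protein (100%) wells. Biotinylated Cbl-b 0.4 nM was preincubated 60 min with compound (20-point 1:2 dilution) before 15 min with 150 nM BODIPY probe; Tb-streptavidin detection.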
# Jurkat cells = assay: IL-2 secretion assay in Jurkat cells activated with CD3/CD28 T Cell Activator; assay type: cell-based; details: Homo sapiens; Jurkat cells, CD3/CD28 T Cell Activator, 24 h, IL-2 AlphaLISA; read-out: IL-2 Secretion (EC50)
# Procedure, shortened: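 Jurkat cells in Opti-MEM were preincubated 1 h at 37° C with compound (final 10 μM to 300 pM, 16-point 1:2 dilution), then activated with human CD3/CD28 T Cell Activator for 24 h at 37° C. Supernatant IL-2 measured by AlphaLISA; EC50 from 4-parameter logistic fit.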
# T1 sequence (Q13191 whole entry, species assumed): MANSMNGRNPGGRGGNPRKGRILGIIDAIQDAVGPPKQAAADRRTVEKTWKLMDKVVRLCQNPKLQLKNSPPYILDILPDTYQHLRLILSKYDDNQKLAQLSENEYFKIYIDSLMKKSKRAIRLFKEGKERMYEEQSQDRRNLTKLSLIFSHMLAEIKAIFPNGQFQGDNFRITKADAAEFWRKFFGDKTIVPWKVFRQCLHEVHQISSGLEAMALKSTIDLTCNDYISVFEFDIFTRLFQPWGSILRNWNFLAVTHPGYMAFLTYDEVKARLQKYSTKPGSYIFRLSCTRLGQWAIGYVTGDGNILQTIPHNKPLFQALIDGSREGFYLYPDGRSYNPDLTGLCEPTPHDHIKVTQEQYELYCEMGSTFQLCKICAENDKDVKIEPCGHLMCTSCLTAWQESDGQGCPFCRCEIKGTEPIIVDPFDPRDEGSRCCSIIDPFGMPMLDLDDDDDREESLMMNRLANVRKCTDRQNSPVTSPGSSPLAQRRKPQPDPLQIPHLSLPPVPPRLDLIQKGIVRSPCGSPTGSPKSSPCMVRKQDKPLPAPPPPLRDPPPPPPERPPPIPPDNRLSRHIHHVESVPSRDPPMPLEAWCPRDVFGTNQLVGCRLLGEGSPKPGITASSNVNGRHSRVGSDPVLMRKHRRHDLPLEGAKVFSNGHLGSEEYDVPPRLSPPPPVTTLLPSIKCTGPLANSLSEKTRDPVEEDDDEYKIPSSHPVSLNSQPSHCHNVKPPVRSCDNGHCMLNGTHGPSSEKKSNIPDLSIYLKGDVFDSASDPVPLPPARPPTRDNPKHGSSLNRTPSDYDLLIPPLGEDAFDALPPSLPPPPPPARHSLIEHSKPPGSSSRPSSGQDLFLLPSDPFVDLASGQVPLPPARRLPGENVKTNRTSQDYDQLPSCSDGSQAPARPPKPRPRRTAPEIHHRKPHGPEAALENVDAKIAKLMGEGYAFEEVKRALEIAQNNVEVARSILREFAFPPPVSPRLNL
Structure (SMILES),IC50 (Cbl-b) [nM],EC50 (Jurkat cells) [nM]
"Cn1cnnc1-c1cc(F)ccc1-c1cc(NC(=O)c2cc(-c3cccc(N)c3)cn(C3CC3)c2=O)nc(C2CC2)c1 [Example 28, N-{6-Cyclopropyl-4-[4-fluoro-2-(4-methyl-4H-1,2,4-triazol-3-yl)phenyl]-2-pyridyl}-5-(m-aminophenyl)-1-cyclopropyl-2-oxo-1,2-dihydronicotinamide]",100 to 1000,> 5000
"Cc1cccnc1-c1cc(C#N)ccc1-c1cc(NC(=O)c2cc(CN3CCO[C@H](C)C3)cn(C3CC3)c2=O)nc(C2CC2)c1 [Example 75, N-[4-[4-cyano-2-(3-methylpyridin-2-yl)phenyl]-6-cyclopropylpyridin-2-yl]-1-cyclopropyl-5-[[(2R)-2-methylmorpholin-4-yl]methyl]-2-oxopyridine-3-carboxamide]",100 to 1000,1000 to 5000
"C[C@H]1CCCN(Cc2cc(C(=O)Nc3cc(-c4ccc(C#N)cc4-c4nc(C(F)(F)F)cn4C)cc(C4CC4)n3)c(=O)n(C3CC3)c2)C1 [Example 47, N-(4-{4-cyano-2-[1-methyl-4-(trifluoromethyl)-2-imidazolyl]phenyl}-6-cyclopropyl-2-pyridyl)-5-{[(S)-3-methyl-1-piperidyl]methyl}-1-cyclopropyl-2-oxo-1,2-dihydronicotinamide]",100 to 1000,1000 to 5000
"CC(C)CNCc1cc(C(=O)Nc2cc(-c3ccc(Cl)cc3C(=O)N3CC(F)(F)C3)cc(C3CC3)n2)c(=O)n(C)c1 [Example 106, N-[4-[4-chloro-2-(3,3-difluoroazetidine-1-carbonyl)phenyl]-6-cyclopropylpyridin-2-yl]-1-methyl-5-[(2-methylpropylamino)methyl]-2-oxopyridine-3-carboxamide]",< 100,< 100
"CO[C@@H](C)[C@H](C)NCc1cc(C(=O)Nc2cc(-c3ccc(F)cc3-c3nncn3C)cc(C3CC3)n2)c(=O)n(C2CC2)c1 [Example 23, N-{6-cyclopropyl-4-[4-fluoro-2-(4-methyl-4H-1,2,4-triazol-3-yl)phenyl]-2-pyridyl}-5-{[(1S,2S)-2-methoxy-1-methylpropylamino]methyl}-1-cyclopropyl-2-oxo-1,2-dihydronicotinamide]",< 100,< 100

# Other lines, results leading:
IC50 (Cbl-b) [nM],EC50 (Jurkat cells) [nM],Structure (SMILES)
< 100,100 to 1000,"N#Cc1ccc(-c2cc(NC(=O)c3cc(CN4C[C@H]5CC[C@@H]4C5)cn(C4CC4)c3=O)nc(C3CC3)c2)c(-c2nncn2C(F)F)c1 [Example 11, N-(4-{4-cyano-2-[4-(difluoromethyl)-4H-1,2,4-triazol-3-yl]phenyl}-6-cyclopropyl-2-pyridyl)-5-({(1R,4S)-2-azabicyclo[2.2.1]hept-2-yl}methyl)-1-cyclopropyl-2-oxo-1,2-dihydronicotinamide]"
< 100,< 100,Cn1cnnc1-c1cc(F)ccc1-c1cc(NC(=O)c2cc(CNC3(C)CCC3)cn(CC3CC3)c2=O)nc(C2CC2)c1 [Example 55]
< 100,< 100,"Cn1cc(C#N)nc1-c1cc(C#N)ccc1-c1cc(NC(=O)c2cc(CNC3(C)CCC3)cn(C3CC3)c2=O)nc(C2CC2)c1 [Example 49, N-{4-[4-cyano-2-(4-cyano-1-methyl-2-imidazolyl)phenyl]-6-cyclopropyl-2-pyridyl}-1-cyclopropyl-5-[(1-methylcyclobutylamino)methyl]-2-oxo-1,2-dihydronicotinamide]"
< 100,100 to 1000,"C[C@H]1CCCN(Cc2cc(C(=O)Nc3cc(-c4ccc(C#N)cc4-c4nncn4C(F)F)cc(N)n3)c(=O)n(C3CC3)c2)C1 [Example 8, N-(6-amino-4-{4-cyano-2-[4-(difluoromethyl)-4H-1,2,4-triazol-3-yl]phenyl}-2-pyridyl)-5-{[(S)-3-methyl-1-piperidyl]methyl}-1-cyclopropyl-2-oxo-1,2-dihydronicotinamide]"
< 100,100 to 1000,"CO[C@@H]1CCN(Cc2cc(C(=O)Nc3cc(-c4ccc(F)cc4-c4nncn4C)cc(C4CC4)n3)c(=O)n(C3CC3)c2)C1 [Example 22, N-{6-cyclopropyl-4-[4-fluoro-2-(4-methyl-4H-1,2,4-triazol-3-yl)phenyl]-2-pyridyl}-5-{[(R)-3-methoxy-1-pyrrolidinyl]methyl}-1-cyclopropyl-2-oxo-1,2-dihydronicotinamide]"
